In patent publication US20240180149A1, “FIRE ANT BAITS WITH ENHANCED SELECTIVITY” (The United States of America, as represented by the …, priority 2022, published 2024):
Entries after “also recorded” stand apart in the source; their conditions may differ.

Columns and labels:
[1] = system: fire ants; assay: Multiple-choice field feeding bioassay on fire ants (soybean oil); assay type: in vivo, Solenopsis invicta; conditions: ten concentrations 0.015-6.6 mg/g in soybean oil, two sets (P=0.076; P=0.703), one-way ANOVA
Text: Ant feeding bioassays—Multiple-choice and a paired two-choice bioassays were used in this study. An exemplary schematic of the multichoice bioassay field feeding setup is shown in FIG. 1A, and an exemplary schematic of the two-choice bioassay field feeding setup is shown in FIG. 1B. Soybean oil was used as a food source for all the bioassays (Great Value, purchased from Walmart in Greenville Mississippi, USA). The feeding apparatus was a filtered 1-ml pipette tip with the part 0.5 cm below the filter removed. In multiple-choice bioassays, five concentrations of the test compounds were tested with untreated soybean oil as a control, and in two-choice bioassays, the compound at certain concentration was tested against the control oil. Eighty microliter soybean oil was loaded onto each filter. After being weighed, the apparatuses with oil were placed in the field for about 2 hours. The apparatuses were then collected and frozen under −40° C. to kill all ants. The apparatuses were weighed again after all ants were removed from the apparatuses. The difference in the weight of apparatuses before and after the feeding bioassays was the oil consumption. Feeding sites were at least 10 m away from each other for fire ants, and 3 m away for little black ants and for thief ants. […]

[2] = system: fire ants; assay: Two-choice field feeding bioassay on fire ants (soybean oil); assay type: in vivo, Solenopsis invicta; conditions: two-choice vs control oil
Text: (§1) Ant feeding bioassays—Multiple-choice and a paired two-choice bioassays were used in this study. An exemplary schematic of the multichoice bioassay field feeding setup is shown in FIG. 1A, and an exemplary schematic of the two-choice bioassay field feeding setup is shown in FIG. 1B. Soybean oil was used as a food source for all the bioassays (Great Value, purchased from Walmart in Greenville Mississippi, USA). The feeding apparatus was a filtered 1-ml pipette tip with the part 0.5 cm below the filter removed. In multiple-choice bioassays, five concentrations of the test compounds were tested with untreated soybean oil as a control, and in two-choice bioassays, the compound at certain concentration was tested against the control oil. Eighty microliter soybean oil was loaded onto each filter. After being weighed, the apparatuses with oil were placed in the field for about 2 hours. The apparatuses were then collected and frozen under −40° C. to kill all ants. The apparatuses were weighed again after all ants were removed from the apparatuses. The difference in the weight of apparatuses before and after the feeding bioassays was the oil consumption. Feeding sites were at least 10 m away from each other for fire ants, and 3 m away for little black ants and for thief ants. The difference in oil consumption among/between treatment and control apparatuses was used to evaluate the effect of tested compound on the feeding of fire ants. For multiple-choice bioassays, a one-way ANOVA was performed to compare the effect of different concentrations of tested compound on the percentage of oil consumption. Tukey's HSD test was used for multiple comparisons. A paired t test was used in statistical analysis for the two-choice bioassays.
Two choice bioassays—Two-choice bioassays were conducted at six concentrations of trans-solenopsis A in soybean oil, including 6.6, 3.3, 1.7, 0.8, 0.4, and 0.2 mg/g for fire ants and little black ants, and four concentrations for thief ants including 6.6, 3.3, 1.7, and 0.8 mg/g. […]

[3] = system: little black ants; assay: Two-choice field feeding bioassay on little black ants (soybean oil); assay type: in vivo, Monomorium minimum
Text: as §1
(§2) Two choice bioassays—Two-choice bioassays were conducted at six concentrations of trans-solenopsis A in soybean oil, including 6.6, 3.3, 1.7, 0.8, 0.4, and 0.2 mg/g for fire ants and little black ants, and four concentrations for thief ants including 6.6, 3.3, 1.7, and 0.8 mg/g. Feeding sites were selected using blank bait (untreated soybean oil in the feeding apparatuses). Blank baits were placed at the flagged sites for 30 minutes before the bioassay, and active feeding sites then used for the bioassays. Bioassays on fire ants were conducted in open area where most baits were hit by fire ants. Bioassays on little black ants and thief ants were conducted under the bushes, since baits under the bushes had more chances to be hit by little black ants or thief ants.

[4] = system: thief ants; assay: Two-choice field feeding bioassay on thief ants (soybean oil); assay type: in vivo, Solenopsis molesta
Text: as §1, §2

[5] = two-choice vs control oil, 1.66 mg/g
[6] = two-choice vs control oil, 1.66 mg/g, listed as Trans-solenopsisn A
[7] = two-choice vs control oil, 3.3 mg/g
[8] = two-choice vs control oil, 3.3 mg/g, listed as Trans-solenopsisn A
[9] = two-choice vs control oil, 6.6 mg/g
[10] = two-choice vs control oil, 6.6 mg/g, listed as Trans-solenopsisn A

CCCCCCCCCCC[C@@H]1CCC[C@@H](C)N1 (relative stereo) [trans-solenopsin A]
effect on oil consumption by fire ants [1]: no significant effect on oil consumption | feeding preference of fire ants for soybean oil ([2]; 0.27 mg/g (270 ppm), P=0.049): fed preferentially on oil treated with trans-solenopsin A; also recorded: feed preferentially on soybean oil containing trans-solenopsin A | feeding preference of fire ants for soybean oil ([2]; 0.42 mg/g (420 ppm), P=0.0585): fed preferentially on oil treated with trans-solenopsin A; also recorded: feed preferentially on soybean oil containing trans-solenopsin A | feeding preference of fire ants for soybean oil ([2]; 6.6 mg/g (6600 ppm), P=0.39): did not significantly affect the feeding preference | inhibition of feeding by little black ants on soybean oil ([3]; two-choice vs control oil, 0.42 mg/g, P=0.07): very close to be statistically significant | feeding by little black ants on soybean oil ([3]; two-choice vs control oil, 0.83 mg/g): significantly inhibited the feeding | feeding by little black ants on soybean oil ([3]; two-choice vs control oil, 0.83 mg/g, listed as Trans-solenopsisn A): significantly inhibited feeding | feeding by little black ants on soybean oil [3, 5]: significantly inhibited the feeding | feeding by little black ants on soybean oil [3, 6]: significantly inhibited feeding | feeding by little black ants on soybean oil [3, 7]: significantly inhibited the feeding | feeding by little black ants on soybean oil [3, 8]: significantly inhibited feeding | feeding by little black ants on soybean oil [3, 9]: almost completely shut down; also recorded: significantly inhibited the feeding | feeding by little black ants on soybean oil [3, 10]: significantly inhibited feeding; also recorded: almost completely inhibited | concentrations that significantly inhibited feeding by little black ants ([3]; two-choice, paired t test, P<=0.045): > 0.42 mg/g | share of oil consumed by little black ants that was trans-solenopsin A treated ([3]; two-choice, 3.3 mg/g): 9.63% | inhibition of feeding by thief ants on soybean oil ([4]; two-choice vs control oil, 0.80 mg/g, P=0.14): not statistically significant | feeding by thief ants on soybean oil [4, 5]: significantly inhibited the feeding | feeding by thief ants on soybean oil [4, 6]: feeding inhibition was significant | feeding by thief ants on soybean oil [4, 7]: significantly inhibited the feeding | feeding by thief ants on soybean oil [4, 8]: feeding inhibition was significant | feeding by thief ants on soybean oil [4, 9]: almost completely stopped; also recorded: completely shut down; also recorded: significantly inhibited the feeding | feeding by thief ants on soybean oil [4, 10]: feeding inhibition was significant; also recorded: almost completely inhibited | share of oil consumed by thief ants that was trans-solenopsin A-treated ([4]; two-choice, concentration not restated (previous sentence: 3.3 mg/g)): 1.52%
